Test results reported in patent publication US7902373B2 (Pfizer Inc, priority 2006, dated 2011).

Target: human recombinant H-PGDS (Homo sapiens, UniProt O60760)
Experiment: Fluorescence intensity h-PGDS TBA enzyme assay
Assay type: biochemical
Conditions: Examples up to 622 (and 3a, 3b)

Sequence of human recombinant H-PGDS (O60760 whole entry): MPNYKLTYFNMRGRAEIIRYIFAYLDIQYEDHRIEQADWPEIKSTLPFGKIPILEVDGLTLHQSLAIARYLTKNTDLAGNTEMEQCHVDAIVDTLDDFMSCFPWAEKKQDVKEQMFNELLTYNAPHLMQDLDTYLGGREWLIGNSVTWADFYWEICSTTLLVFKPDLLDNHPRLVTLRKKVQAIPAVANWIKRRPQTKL

Row | IC50 [nM] | SMILES
1 | 2.8 | Cn1c(CN2CCC(NC(=O)c3ccc(-c4cccc(F)c4)nc3)CC2)nc2cc(F)c(F)cc21 [Example 449, N-{1-[(5,6-Difluoro-1-methyl-1H-benzimidazol-2-yl)methyl]piperidin-4-yl}-6-(3-fluorophenyl)nicotinamide]
2 | 0.88 | O=C(NC1CCN(Cc2ccnc3nccnc23)CC1)c1ccc(-c2cccc(F)c2)nc1 [Example 451, 6-(3-Fluorophenyl)-N-[1-(pyrido[2,3-b]pyrazin-8-ylmethyl)piperidin-4-yl]nicotinamide]
3 | 1.34 | Cc1cnc(CN2CCC(NC(=O)c3ccc(-c4cccc(F)c4)nc3)CC2)cn1 [Example 455, 6-(3-Fluorophenyl)-N-{1-[(5-methylpyrazin-2-yl)methyl]piperidin-4-yl}nicotinamide]
4 | 1.28 | COc1ncccc1CN1CCC(NC(=O)c2ccc(-c3cccc(F)c3)nc2)CC1 [Example 460, 6-(3-Fluorophenyl)-N-{1-[(2-methoxypyridin-3-yl)methyl]piperidin-4-yl}nicotinamide]
5 | 1.02 | CC(C)(O)c1cc(CN2CCC(NC(=O)c3ccc(-c4cccc(F)c4)nc3)CC2)ccn1 [Example 464, 6-(3-Fluorophenyl)-N-(1-{[2-(1-hydroxy-1-methylethyl)pyridin-4-yl]methyl}piperidin-4-yl)nicotinamide]
6 | 0.881 | O=C(NC1CCN(Cc2ccc3c(n2)NCCC3)CC1)c1ccc(-c2cccc(F)c2)nc1 [Example 465, 6-(3-Fluorophenyl)-N-[1-(5,6,7,8-tetrahydro-18-naphthyridin-2-ylmethyl)piperidin-4-yl]nicotinamide]
7 | 0.855 | O=C(NC1CCN(Cc2ccc(=O)[nH]n2)CC1)c1ccc(-c2cccc(F)c2)nc1 [Example 469, 6-(3-Fluorophenyl)-N-{1-[(6-oxo-1,6-dihydropyridazin-3-yl)methyl]piperidin-4-yl}nicotinamide]
8 | 0.491 | CC(C)(O)c1ccc(CN2CCC(NC(=O)c3ccc(-c4cccc(F)c4)nc3)CC2)cn1 [Example 472, 6-(3-Fluorophenyl)-N-(1-{[6-(1-hydroxy-1-methylethyl)pyridin-3-yl]methyl}piperidin-4-yl)nicotinamide]
9 | 1.44 | Cn1nccc1-c1ccc(CN2CCC(NC(=O)c3ccc(-c4cccc(F)c4)nc3)CC2)cc1 [Example 474, 6-(3-Fluorophenyl)-N-{1-[4-(1-methyl-1H-pyrazol-5-yl)benzyl]piperidin-4-yl}nicotinamide]
10 | 4.07 | O=C(NC1CCN(Cc2ccc(Br)cn2)CC1)c1ccc(-c2cccc(F)c2)nc1 [Example 475, N-{1-[(5-Bromopyridin-2-yl)methyl]piperidin-4-yl}-6-(3-fluorophenyl)nicotinamide]
11 | 4.04 | Cc1ccc(-c2nc(CN3CCC(NC(=O)c4ccc(-c5cccc(F)c5)nc4)CC3)n(C)n2)nn1 [Example 477, 6-(3-Fluorophenyl)-N-(1-{[1-methyl-3-(6-methylpyridazin-3-yl)-1H-1,2,4-triazol-5-yl]methyl}piperidin-4-yl)nicotinamide]
12 | 2.01 | Cn1nc(-c2ccccn2)nc1CN1CCC(NC(=O)c2ccc(-c3cccc(F)c3)nc2)CC1 [Example 478, 6-(3-Fluorophenyl)-N-{1-[(1-methyl-3-pyridin-2-yl-1H-1,2,4-triazol-5-yl)methyl]piperidin-4-yl}nicotinamide]
13 | 2.69 | Cn1nccc1-c1nc(CN2CCC(NC(=O)c3ccc(-c4cccc(F)c4)nc3)CC2)nn1C [Example 480, 6-(3-Fluorophenyl)-N-(1-{[1-methyl-5-(1-methyl-1H-pyrazol-5-yl)-1H-1,2,4-triazol-3-yl]methyl}piperidin-4-yl)nicotinamide]
14 | 2.45 | Cn1nc(-c2ncccn2)nc1CN1CCC(NC(=O)c2ccc(-c3cccc(F)c3)nc2)CC1 [Example 481, 6-(3-Fluorophenyl)-N-{1-[(1-methyl-3-pyrimidin-2-yl-1H-1,2,4-triazol-5-yl)methyl]piperidin-4-yl}nicotinamide]
15 | 2.39 | Cn1nc(CN2CCC(NC(=O)c3ccc(-c4cccc(F)c4)nc3)CC2)nc1-c1ccccc1F [Example 482, 6-(3-Fluorophenyl)-N-(1-{[5-(2-fluorophenyl)-1-methyl-1H-1,2,4-triazol-3-yl]methyl}piperidin-4-yl)nicotinamide]
16 | 3.58 | Cn1nc(-c2cccc(F)c2)nc1CN1CCC(NC(=O)c2ccc(-c3cccc(F)c3)nc2)CC1 [Example 483, 6-(3-Fluorophenyl)-N-(1-{[3-(3-fluorophenyl)-1-methyl-1H-1,2,4-triazol-5-yl]methyl}piperidin-4-yl)nicotinamide]
17 | 2.68 | Cn1nc(CN2CCC(NC(=O)c3ccc(-c4cccc(F)c4)nc3)CC2)nc1-c1ccc(F)cc1 [Example 484, 6-(3-Fluorophenyl)-N-(1-{[5-(4-fluorophenyl)-1-methyl-1H-1,2,4-triazol-3-yl]methyl}piperidin-4-yl)nicotinamide]
18 | 2.77 | Cn1nc(CN2CCC(NC(=O)c3ccc(-c4cccc(F)c4)nc3)CC2)nc1-c1ccccn1 [Example 485, 6-(3-Fluorophenyl)-N-{1-[(1-methyl-5-pyridin-2-yl-1H-1,2,4-triazol-3-yl)methyl]piperidin-4-yl}nicotinamide]

The next lines start with the molecule.

Row | SMILES | IC50 [nM]
19 | O=C(NC1CCN(Cc2ccnc3cccnc23)CC1)c1ccc(-c2cccc(F)c2)nc1 [Example 450, 6-(3-Fluorophenyl)-N-[1-(1,5-naphthyridin-4-ylmethyl)piperidin-4-yl]nicotinamide] | 2.05
20 | O=C(NC1CCN(Cc2ccnc3ncccc23)CC1)c1ccc(-c2cccc(F)c2)nc1 [Example 452, 6-(3-Fluorophenyl)-N-[1-(1,8-naphthyridin-4-ylmethyl)piperidin-4-yl]nicotinamide] | 0.724
21 | O=C(NC1CCN(Cc2ccc(CN3CCOCC3)cc2)CC1)c1ccc(-c2cccc(F)c2)nc1 [Example 453, 6-(3-Fluorophenyl)-N-{1-[4-(morpholin-4-ylmethyl)benzyl]piperidin-4-yl}nicotinamide] | 1.42
22 | Cc1nnc(-c2ccc(CN3CCC(NC(=O)c4ccc(-c5cccc(F)c5)nc4)CC3)cc2)o1 [Example 454, 6-(3-Fluorophenyl)-N-{1-[4-(5-methyl-1,3,4-oxadiazol-2-yl)benzyl]piperidin-4-yl}nicotinamide] | 0.82
23 | O=C(NC1CCN(Cc2nc3cccc4c3n2CC=C4)CC1)c1ccc(-c2cccc(F)c2)nc1 [Example 456, 6-(3-Fluorophenyl)-N-[1-(4H-imidazo[4,51-ij]quinolin-2-ylmethyl)piperidin-4-yl]nicotinamide] | 2.05
24 | CCOC(=O)c1csc(CN2CCC(NC(=O)c3ccc(-c4cccc(F)c4)nc3)CC2)n1 [Example 457, Ethyl 2-{[4-({[6-(3-fluorophenyl)pyridin-3-yl]carbonyl}amino)piperidin-1-yl]methyl}-1,3-thiazole-4-carboxylate] | 0.76
25 | C[C@@H]1Oc2ccc(CN3CCC(NC(=O)c4ccc(-c5cccc(F)c5)nc4)CC3)cc2[C@H]1C(=O)O [Example 458, (2S,3R)-5-{[4-({[6-(3-Fluorophenyl)pyridin-3-yl]carbonyl}amino)piperidin-1-yl]methyl}-2-methyl-2,3-dihydro-1-benzofuran-3-carboxylic acid] | 1.78
26 | CCOc1ncccc1CN1CCC(NC(=O)c2ccc(-c3cccc(F)c3)nc2)CC1 [Example 459, N-{1-[(2-Ethoxypyridin-3-yl)methyl]piperidin-4-yl}-6-(3-fluorophenyl)nicotinamide] | 0.721
27 | CC(C)Oc1ncccc1CN1CCC(NC(=O)c2ccc(-c3cccc(F)c3)nc2)CC1 [Example 461, 6-(3-Fluorophenyl)-N-{1-[(2-isopropoxypyridin-3-yl)methyl]piperidin-4-yl}nicotinamide] | 0.239
28 | O=C(NC1CCN(Cc2cccnc2OCC2CC2)CC1)c1ccc(-c2cccc(F)c2)nc1 [Example 462, N-(1-{[2-(Cyclopropylmethoxy)pyridin-3-yl]methyl}piperidin-4-yl)-6-(3-fluorophenyl)nicotinamide] | 0.264
29 | O=C(NC1CCN(Cc2cccc(CF)n2)CC1)c1ccc(-c2cccc(F)c2)nc1 [Example 463, N-(1-{[6-(Fluoromethyl)pyridin-2-yl]methyl}piperidin-4-yl)-6-(3-fluorophenyl)nicotinamide] | 0.385
30 | CCOC(=O)Cn1cc(CN2CCC(NC(=O)c3ccc(-c4cccc(F)c4)nc3)CC2)cn1 [Example 466, Ethyl (4-{[4-({[6-(3-fluorophenyl)pyridin-3-yl]carbonyl}amino)piperidin-1-yl]methyl}-1H-pyrazol-1-yl)acetate] | 1.49
31 | COc1cc(CN2CCC(NC(=O)c3ccc(-c4cccc(F)c4)nc3)CC2)c(F)cc1Cl [Example 467, N-[1-(4-Chloro-2-fluoro-5-methoxybenzyl)piperidin-4-yl]-6-(3-fluorophenyl)nicotinamide] | 0.257
32 | CC(C)c1nnc2ccc(CN3CCC(NC(=O)c4ccc(-c5cccc(F)c5)nc4)CC3)cn12 [Example 470, 6-(3-Fluorophenyl)-N-{1-[(3-isopropyl[1,2,4]triazolo[4,3-a]pyridin-6-yl)methyl]piperidin-4-yl}nicotinamide] | 4.14
33 | COc1ccc2nccc(CN3CCC(NC(=O)c4ccc(-c5cccc(F)c5)nc4)CC3)c2c1 [Example 471, 6-(3-Fluorophenyl)-N-{1-[(6-methoxyquinolin-4-yl)methyl]piperidin-4-yl}nicotinamide] | 2.68
34 | Cn1ccc(-c2ccc(CN3CCC(NC(=O)c4ccc(-c5cccc(F)c5)nc4)CC3)cc2)n1 [Example 473, 6-(3-Fluorophenyl)-N-{1-[4-(1-methyl-1H-pyrazol-3-yl)benzyl]piperidin-4-yl}nicotinamide] | 2.36
35 | O=C(NC1CCN(Cc2ccc(CF)nc2)CC1)c1ccc(-c2cccc(F)c2)nc1 [Example 476, N-(1-{[6-(Fluoromethyl)pyridin-3-yl]methyl}piperidin-4-yl)-6-(3-fluorophenyl)nicotinamide] | 0.935
36 | Cc1nn(C)c(N2CCCOCC2)c1CN1CCC(NC(=O)c2ccc(-c3cccc(F)c3)nc2)CC1 [Example 479, N-(1-{[1,3-Dimethyl-5-(1,4-oxazepan-4-yl)-1H-pyrazol-4-yl]methyl}piperidin-4-yl)-6-(3-fluorophenyl)nicotinamide] | 0.421
